Source: US9943687B2, “Method of treating parkinson's disease and other movement disorders” (Duke University, priority 2007, dated 2018)
Where “and” joins values, the source holds several entries; their conditions need not be identical. Equal entries are not always repeated.

Key:
tyrosine hydroxylase = experiment: Tyrosine hydroxylase staining and quantification in striatum of 6-OHDA lesioned rats; type: in vivo, Long-Evans rats; conditions: 6-OHDA three sites each side, 7 μg per site
Protocol: Rats received a total of […] 6-OHDA, injected in 3 locations of the striatum on each side. The injections contained a saline solution with 3.5 mg/ml 6-OHDA and 0.05% ascorbate. Anteroposterior, mediolateral and dorsoventral coordinates for the injections were: +1.0, +/−3.0, −5.0; −0.1, +/−3.7, −5.0 and −1.2, +/−4.5 and −5.0 (Winkler et al, Neurobiol. Dis. 10:165 (2002)).
The extent and position of striatal lesions was confirmed by TH immunohistochemistry. For quantification of TH-staining, digital photos of the individual sections were taken with a 16× microscope (Stemi 2000-c, Zeiss) under identical illumination conditions. The range in brightness was practically identical for every photo ranging from no light (inside the microscope) at the outer edge to the brightest non-stained part of each section. Images were converted to grey-scale bitmap format with an 8-bit dynamic range in brightness.

DAT-KO mice [1] = experiment: Minimum L-DOPA dose (alone or with DCS) required to restore locomotion; type: in vivo; conditions: AMPT-treated DAT-KO mice
Protocol: (§1) Rats were placed in a circular open-field (90 cm diameter) for 70 min (10 min adaptation and 1 h behavioural recording). The animals were then allowed to rest in its home cage for one hour. After that, the animals were reintroduced into the open-field and dorsal column stimulation (DCS) was applied every 10 minutes for 30 seconds. In mice, locomotion was documented both by video recordings and through an automated tracking system based in infra-red beams (Med Associates Inc., VT). Recordings were obtained before and after dopamine-depletion, and DCS was applied as described below.
(§2) The movements of the rats in the open-field were extracted from the digitized video recordings, with approximately 1 mm spatial resolution, with custom designed algorithms implemented in command interpreting software (The MathWorks Inc., MA). For mice, scored locomotion from the infra-red tracking system was binned into 500 ms bins (original resolution 50 ms). For locomotion extraction from video data, single frames with a 500 ms interval were used.
In order to find the minimum dose of L-DOPA (alone or combined with DCS) required to restore locomotion, a severely dopamine-depleted akinetic animal model was used, namely mice lacking the gene for the presynaptic dopamine membrane transporter (DAT-KO). […]

DAT-KO mice [2] = experiment: LFP spectral index in severely dopamine depleted animals; type: in vivo; conditions: last hours of testing period, coinciding with onset of locomotion
Protocol: FIG. 20. Local field potentials are shifted to higher frequencies as a result of DCS even in severely dopamine depleted animals. Average spectral indices (power ratio: [25-55]/[1.5-25] Hz) calculated for DCS+L-DOPA (black) and L-DOPA (grey) treated animals, respectively. DCS induced spectral changes even at the lowest L-DOPA dose tested (a single 1 mg/kg injection) while the spectral change in the L-DOPA only group occurred during the last hours of the testing period (after more than 20 mg/kg L-DOPA in total) coinciding with onset of locomotion.
Struck by the dramatic functional recovery on the behavioral level, the electrophysiological changes associated with motor improvements were analyzed next. […] The spectral shift was maintained throughout the stimulation period and lasted for ˜50 s following the off-set of stimulation. This indicates a prolonged shift in the activity state of these brain structures, also ruling out any major effects of contamination in the spectrograms from stimulation currents (FIG. 16C). To condense the spectral shift into a single measure, a spectral index was computed by dividing the spectral range analyzed into an upper and lower half and calculating the ratio of the summed power of the frequencies in the two intervals [(25-55 Hz)/(1.5-25 Hz)]. […]

[3] = tested on: striatal levels of dopamine; experiment: Tissue content analysis of striatal dopamine and metabolites (HPLC-EC) after AMPT; type: in vivo, wild-type C57/BL6J mice
Protocol: FIGS. 11A-11C. Tissue content analysis confirms that acute pharmacological dopamine depletion in wild-type mice leads to striatal dopamine levels similar to those observed in PD patients. […] Average quantities in depleted animals were reduced for dopamine, DOPAC and HVA to: 4.5 ng, 0.17 ng and 0.41 ng per mg tissue, respectively, compared to 14.4 ng, 0.74 ng and 1.36 ng per mg tissue, for saline injected control animals (**=p<0.005, Mann-Whitney test, n=6 in each group). Tissue content analysis of dopamine and metabolites.
Striatal tissue content of dopamine was assessed using high performance liquid chromatography with electrochemical detection, as previously described. Striata were rapidly dissected, frozen, and stored at −80° C. Later, tissue samples were homogenized in 0.1M HClO4 containing 100 ng/ml 3,4-dihydroxybenzylamine (DHBA) as an internal standard. Homogenates were centrifuged for 10 min at 10,000×g. Supernatants were filtered through 0.22 μm filter and analyzed for levels of dopamine using HPLC-EC. Monoamines and metabolites were separated on a microbore reverse-phase column (C-18, 5 μm, 1×150 mm, Unijet, BAS). The volume of injection was 5 μl.
(§3) The first set of experiments was carried out using an inducible mouse model of PD, first in wild-type animals and then in dopamine-transporter knock-out (DAT-KO) mice (Sotnikova et al, PLoS Biol. 3:e271 (2005)). Through pharmacological inhibition of dopamine synthesis, acute dopamine depletion was induced in both types of animals in order to reliably document the effects of DCS during a severe parkinsonian-like state of akinesia. In agreement with previous experiments, the characteristic behavioral and electrophysiological changes following inhibition of dopamine synthesis was confirmed in these animals (Carlsson, Acta Neurol. Scand. Suppl 51:11 (1972), Costa et al, Neuron. 52:359 (2006), Sotnikova et al, PLoS Biol. 3:e271 (2005)). In patients, the cardinal symptoms of idiopathic PD, rigidity, resting tremor and brady-/hypokinesia, have been reported to be clinically apparent following degeneration of 60-70% of the dopaminergic neurons of the substantia nigra pars compacta, which in turn results in a […] reduction of striatal dopamine levels (Brooks et al, Biol. Psychiatry 59:908 (2006), Lloyd et al, J. Pharmacol. Exp. Ther. 195:453 (1975)). […] Secondly, a pronounced muscle tremor was evident during resting periods, which was reflected in characteristic oscillatory patterns in electromyographic (EMG) recordings obtained from chronically implanted microwires in the nuchal muscles (FIG. 12). This tremor was suppressed during locomotion bouts. […] (FIG. 13A, see also Drouot et al, Neuron 44:769 (2004) and Sakai et al, Brain Res. 633:144 (1994)).

wild-type mice [4] = experiment: Open-field locomotion after acute pharmacological dopamine depletion; type: in vivo, wild-type C57/BL6J mice
Protocol: as §1, §2
The number of bins used for histograms of locomotion speeds was adjusted according to the maximum speed scored in a single bin in the slowest condition (i.e. 500 mm/s for the rats and 180 mm/s for the mice). The relatively few (<0.3%) events with locomotion components faster than the upper limit found in the other conditions were assigned to the fastest bin. The number of events within each speed interval was summed and the relative change in response to DCS was calculated. A lower threshold just above the quantal step was used in the analysis of histogram distributions, i.e. 10 mm/500 ms for both mouse and rat data.
as §3

wild-type mice [5] = experiment: Catalepsy test (forepaws on bar 3 cm above the ground); type: in vivo, wild-type C57/BL6J mice; conditions: after the 6 h depletion period
Protocol: The first set of experiments was carried out using an inducible mouse model of PD, first in wild-type animals and then in dopamine-transporter knock-out (DAT-KO) mice (Sotnikova et al, PLoS Biol. 3:e271 (2005)). Through pharmacological inhibition of dopamine synthesis, acute dopamine depletion was induced in both types of animals in order to reliably document the effects of DCS during a severe parkinsonian-like state of akinesia. In agreement with previous experiments, the characteristic behavioral and electrophysiological changes following inhibition of dopamine synthesis was confirmed in these animals (Carlsson, Acta Neurol. Scand. Suppl 51:11 (1972), Costa et al, Neuron. 52:359 (2006), Sotnikova et al, PLoS Biol. 3:e271 (2005)). In patients, the cardinal symptoms of idiopathic PD, rigidity, resting tremor and brady-/hypokinesia, have been reported to be clinically apparent following degeneration of 60-70% of the dopaminergic neurons of the substantia nigra pars compacta, which in turn results in a […] reduction of striatal dopamine levels (Brooks et al, Biol. Psychiatry 59:908 (2006), Lloyd et al, J. Pharmacol. Exp. Ther. 195:453 (1975)). […]

corticostriatal circuit = experiment: Corticostriatal LFP oscillations / dopamine spectral index after AMPT injection; type: in vivo, C57/J (wild type) male mice; conditions: after AMPT injection 250 mg/kg i.p.
Protocol: Two C57/J (wild type) male mice where implanted with peripheral nerve cuff electrodes, microwire electrodes arrays in the striatum and motor cortex and one EMG wire in the trapezium muscle. After a week of recovery, a series of experiments were carried out. Individual animals were introduced to the open field activity (OFA) monitor cage, which permitted tracking of the animal's locomotive activity. After 10 minutes, the animal was injected with AMPT (250 mg/kg, i.p.) to produce a partial depletion in dopamine brain levels. The stimulation started 15 minutes after the injection. It was delivered in 2-minute windows, alternated with 2 minutes of rest (no stimulation). The amplitude was fixed at 0.4 mA. This value was selected on the basis that it produced a noticeable effect on the animal (soft scratching of the whiskers pads) at the onset of stimulation but no further signs of discomfort or pain. Sixteen different frequency values delivered in a pseudorandom way (1-130 Hz) were tested.
The key observation in these experiments was that IS at some frequencies could revert this strong neural oscillation pattern to the type of desynchronized firing activity observed during the control period. […] In order to quantify this observation, the ratio between the LFP power in the 2-4 Hz and 0-4 Hz range was used as an indicator of the predominant oscillatory pattern (FIG. 6). […]

[6] = tested on: striatal dopamine concentrations; conditions: cited from earlier work
[7] = two i.p. injections of 250 mg/kg, 2 hours apart, measured 4 hours after last injection, n=6

NCCc1cc(O)c(O)cc1O [6-OHDA]
tyrosine hydroxylase staining relative to sham treated controls (tyrosine hydroxylase): ~20% and 21%

N[C@@H](Cc1ccc(O)c(O)c1)C(=O)O [L-DOPA]
L-DOPA injection dose at which locomotion first occurred (DAT-KO mice [1]; L-DOPA injections every hour with increasing dose): 5 mg/kg
total L-DOPA dose when locomotion first occurred (DAT-KO mice [1]; cumulative dose of hourly injections): 15 mg
total L-DOPA dose at which spectral change occurred (DAT-KO mice [2]): more than 20 mg/kg

CC(N)(Cc1ccc(O)cc1)C(=O)O (stereo not drawn) [AMPT, α-methyl-p-tyrosine]
reduction of striatal dopamine levels ([3]; two i.p. injections (250 mg/kg) during a 6 h period): 69%
striatal DOPAC tissue content in depleted animals [3, 7]: 0.17 ng per mg tissue
striatal HVA tissue content in depleted animals [3, 7]: 0.41 ng per mg tissue
striatal dopamine tissue content in depleted animals ([3]; two i.p. injections of 250 mg/kg, 2 hours apart, measured 4 hours after last injection, n=6, 250 mg/kg): 4.5±2.0 ng per mg tissue and 4.5 ng per mg tissue
average amount of locomotion as percentage of control values (wild-type mice [4]; depleted animals during testing periods): ~10%
average locomotion score in open-field (mean±SEM) (wild-type mice [4]; depleted animals, n=14): 0.4±0.02 mm/s
locomotion score, fast movements, as percentage of non-depleted animals (wild-type mice [4]; fast speed interval): 0.3%
locomotion score, medium movements, as percentage of non-depleted animals (wild-type mice [4]; medium speed interval): 2.0%
locomotion score, slow movements, as percentage of non-depleted animals (wild-type mice [4]; slow speed interval): 10.5%
catalepsy: time unable to remove the forepaws from bar (wild-type mice [5]): at least 30 s
frequency of strong LFP synchronization after dopamine depletion (corticostriatal circuit): 4 Hz
dopamine spectral index (LFP power 2-4 Hz / 0-4 Hz) (corticostriatal circuit; basal value around 0.5): ~1
dopamine levels after AMPT in DAT-KO mice ([6]; 250 mg/kg i.p.): virtually undetectable levels
duration of severe akinesia, rigidity and tremors ([6]; DAT-KO mice treated with AMPT): up to 16 hours
striatal dopamine concentration relative to control animals ([6]; DAT-KO mice treated with AMPT): 0.2%
